According to patent US20230330067A1, “NOVEL THIOHYDANTOIN DERIVATIVES AND USES THEREOF” (CELROS BIOTECH, priority 2020, published 2023):

Key:
Huα-Syn transgenic mice = test: Huα-Syn transgenic mice; assay type: in vivo; conditions: 10 mg/kg intraperitoneal daily for 3 months
Experimental: In order to evaluate the effect of the compound of Example 1 on Huα-Syn transgenic mice, 6-month-old transgenic mice or wild-type mice were divided into 4 groups. • (1) wild type (WT)+vehicle • (2) transgenic (TG)+vehicle • (3) wild type+compound of Example 1 (10 mg/kg) • (4) transgenic+compound of Example 1 (10 mg/kg)
The compound of Example 1 was dissolved in a vehicle containing 4% DMSO (dimethyl sulfoxide, Sigma-Aldrich) and 96% corn oil (Sigma-Aldrich). Mice were intraperitoneally injected with the compound of Example 1 daily at 10 mg/kg daily for 3 months.
The maximum force of the mouse forelimb was recorded with a grip strength meter. The grip strength of vehicle-treated transgenic mice was reduced compared to wild-type mice of the same age.

[1] = system: MPTP-induced Parkinson's disease; test: MPTP-induced Parkinson's disease model mice; assay type: in vivo, C57BL/6 male mice
Experimental: In order to evaluate the effect of the compound of Example 1 against MPTP (1-methyl-4-phenyl-1,2,3,6-tetrahydropyridine hydrochloride; Sigma-Aldrich) induced Parkinson's disease, twenty-six C57BL/6 male mice (9 weeks old) were randomly divided into three groups. • (1) saline+vehicle • (2) MPTP+vehicle • (3) MPTP+compound of Example 1 (10 mg/kg) Mice were injected intraperitoneally with MPTP (15 mg/kg) 4 times at 2 hour intervals, whereas control mice were treated with the same volume of saline. The compound of Example 1 was dissolved in a vehicle containing 4% DMSO (dimethyl sulfoxide, Sigma-Aldrich) and 96% corn oil (Sigma-Aldrich). Mice received daily intraperitoneal injections of the compound of Example 1 at 10 mg/kg for 8 days from 1 day prior to MPTP injection. Dopaminergic neurons were detected using an anti-tyrosine hydroxylase antibody (1:2000-4000, abcaom) and microglia were measured using an anti-Ibal antibody (1:1000, Wako). Biotinylated goat anti-rabbit antibody (VECTOR, BA-1000) was used as secondary antibody, and ABC solution (VECTOR, BA-1000) was employed. The immunoreactive regions were then incubated with 3-3′ diaminobenzidine (DAB, Dako) to change the color to brown. Seven days post MPTP injection (one day post the final injection of the compound of Example 1), mice were sacrificed and brains thereof were recovered. The brain was sectioned coronally (thickness of 30 μm) using a cryostat (CM1850, Leica), and stored in anti-freeze solution (30% sucrose, 1% polyvinylpyrrolidone and 30% ethylene glycol in 1X PBS) at -20° C. Six coronal sections from substantia nigra (bregma −2.80 mm to −3.80 mm) and three coronal sections (bregma +0.98 mm to +0.50 mm) were collected every 150 μm, stained, and analyzed using ImagePro plus 7.0 software. Mice were subjected to the rotarod test 3 times (1 day before MPTP injection, Day 3 and Day 6 post MPTP injection) based on 3 trials/day.

human Nox1 = target: T1, human Nox1 (Homo sapiens, UniProt Q9Y5S8); test: Lucigenin chemiluminescence assay, human Nox1; assay type: biochemical; conditions: Drosophila membranes expressing hNox1; average of three assays
T1 construct: made in house; host or cells: transgenic Drosophila (UAS-hNox1/UAS-dDuox-RNAi; Da-GAL4/+), membranes from fly homogenate
T1 sequence (Q9Y5S8 1-564): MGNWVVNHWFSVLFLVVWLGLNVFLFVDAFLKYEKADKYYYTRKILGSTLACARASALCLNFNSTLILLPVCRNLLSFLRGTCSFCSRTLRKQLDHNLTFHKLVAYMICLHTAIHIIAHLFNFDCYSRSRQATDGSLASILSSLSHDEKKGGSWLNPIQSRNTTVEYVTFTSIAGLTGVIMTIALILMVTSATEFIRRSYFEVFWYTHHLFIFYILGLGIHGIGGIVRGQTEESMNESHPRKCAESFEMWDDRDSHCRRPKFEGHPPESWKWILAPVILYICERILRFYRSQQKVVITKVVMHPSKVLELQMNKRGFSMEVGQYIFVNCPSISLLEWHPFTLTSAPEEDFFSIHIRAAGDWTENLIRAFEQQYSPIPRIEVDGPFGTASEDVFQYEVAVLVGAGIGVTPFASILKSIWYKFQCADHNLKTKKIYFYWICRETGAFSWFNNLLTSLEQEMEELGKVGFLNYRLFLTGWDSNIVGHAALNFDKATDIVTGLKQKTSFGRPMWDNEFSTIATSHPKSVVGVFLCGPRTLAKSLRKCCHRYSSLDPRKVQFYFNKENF
Description: Human Nox isozymes were provided from transgenic flies expressing human Nox isozymes under the daughterless (Da)-GAL4 promoter. The genotype of each fly line is shown below. • 1) Human Nox1: UAS-hNox1/UAS-dDuox-RNAi; Da-GAL4/+ • 2) Human Nox2: UAS-hNox2/UAS-dDuox-RNAi; Da-GAL4/+ • 3) Human Nox4: UAS-hNox4/UAS-dDuox-RNAi; Da-GAL4/+
Transgenic flies were homogenized with PBS containing protease inhibitors (Aprotinin and Leupeptin) to obtain Drosophila membranes of each Nox isozyme. The membranes were incubated with compounds (100 μM, 10 μM, 1 μM, 0.1 μM, 0.01 μM, 0.001 μM, and 0 μM) for 10 min on a shaker. After that, a mixture of 500 μM NADPH (beta-nicotinamide adenine dinucleotide 2′-phosphate reduced tetrasodium salt hydrate; Sigma-Aldrich) and 400 μM lucigenin (N,N′-dimethyl-9,9′-biacridinium dinitrate; Sigma-Aldrich) in 1X HEPES (4-(2-hydroxyethyl)-1-piperazineethanesulfonic acid) buffer was added to the membrane. Lucigenin chemiluminescence was detected at 1 minute intervals for 10 min using a multimode microplate reader (SpectraMax iD3, Molecular Devices). IC50 values were calculated with Graph-Pad Prism 5 (GraphPad Software).
Lucigenin chemiluminescence assays were performed with Drosophila membranes expressing hNox1, hNox2 and hNox4. The assay was repeated three times and the average of the IC50 values was determined.

IC50 (human Nox1): 1.45 µM
SMILES: CN1C(=S)N(C2CCCCC2)C(=O)/C1=C\c1ccc(N(C)CCO)cc1 [Example 1, (E)-3-cyclohexyl-5-(4-((2-hydroxyethyl)(methyl)amino)benzylidene)-1-methyl-2-thioxoimidazolidin-4-one]
amount of the phosphor α-synuclein in the hippocampus (HP CA1, HP CA2) (Huα-Syn transgenic mice; compared to vehicle-treated transgenic mice, FIG. 7): reduced the amount of the phosphor α-synuclein | astrocyte pathology (GFAP immunopositive astrocytes) in the prefrontal cortex (Pfcx) (Huα-Syn transgenic mice; FIG. 8): reduced astrocytes in Pfcx | microglia pathology (Iba1 immuno-positive microglia) in hippocampus (HP CA1) (Huα-Syn transgenic mice; FIG. 9): decrease in the number of microglial cells in HP CA1 | neuromuscular function (forelimb grip strength) (Huα-Syn transgenic mice; FIG. 10): improved the grip strength | dopaminergic neuron protection (Th+ cells in substantia nigra, Th+ fiber density in striatum) ([1]; 10 mg/kg intraperitoneal daily for 8 days, FIG. 4): protected dopaminergic neurons | pathology of microglia (Iba1+ counts in substantia nigra and striatum) ([1]; 10 mg/kg intraperitoneal daily for 8 days, FIG. 5): improved the pathology of microglia | motor function (rotarod test, retention time on the rod) ([1]; 10 mg/kg intraperitoneal daily, Day 3 and Day 6 post MPTP injection, FIG. 6): improved motor function
